Blank lines part the entries; values can stand above or below the molecule they belong to.
Assays:
AlpJ = molecular target: T1, AlpJ (Streptomyces ambofaciens, UniProt Q6VMI5); experiment: HPLC of products […] and […] from one-pot reaction with AlpK; type: biochemical; details: NADH, FAD, pH 7.5, 30 °C
T1 construct: pET28a, Ni-NTA purified from E. coli BL21(DE3); gene amplified from kinamycin BAC 3C2
T1 sequence (Q6VMI5 1-232): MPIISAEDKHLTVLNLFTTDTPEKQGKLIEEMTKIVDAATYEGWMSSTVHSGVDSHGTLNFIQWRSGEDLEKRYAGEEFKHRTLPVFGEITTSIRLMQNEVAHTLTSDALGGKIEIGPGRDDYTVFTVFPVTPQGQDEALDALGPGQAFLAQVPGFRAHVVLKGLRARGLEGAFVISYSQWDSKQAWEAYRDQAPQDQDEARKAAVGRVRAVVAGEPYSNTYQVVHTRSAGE

AlpH = molecular target: T2, AlpH (Streptomyces ambofaciens, UniProt Q6VMJ4); experiment: surface plasmon resonance (Biacore 8K, AlpH immobilized on CM5); type: binding
T2 construct: N-terminal His6-tagged, pET28a, E. coli BL21(DE3); homodimer in the apo crystal; gene amplified from kinamycin BAC 3C2
Text: surface plasmon resonance (Biacore 8K, AlpH immobilized on CM5) on AlpH | Surface plasmon resonance analysis of AlpH and gluN2H3 also identified a specific interaction between them

[1] = molecular target: AlpH, O-methyltransferase-like protein from the kinamycin biosynthetic gene cluster; experiment: crystal structure; apo-AlpH, hanging drop vapor diffusion at 16 °C; protein in 20 mM Tris-HCl pH 7.5, 100 mM NaCl, 1 mM DTT, 1 mM EDTA; reservoir 0.03 M citric acid, 0.07 M Bis-Tris propane pH 7.6, 20% PEG3350; molecular replacement, 1.87 Å

T2 sequence (Q6VMJ4 entry or part of it): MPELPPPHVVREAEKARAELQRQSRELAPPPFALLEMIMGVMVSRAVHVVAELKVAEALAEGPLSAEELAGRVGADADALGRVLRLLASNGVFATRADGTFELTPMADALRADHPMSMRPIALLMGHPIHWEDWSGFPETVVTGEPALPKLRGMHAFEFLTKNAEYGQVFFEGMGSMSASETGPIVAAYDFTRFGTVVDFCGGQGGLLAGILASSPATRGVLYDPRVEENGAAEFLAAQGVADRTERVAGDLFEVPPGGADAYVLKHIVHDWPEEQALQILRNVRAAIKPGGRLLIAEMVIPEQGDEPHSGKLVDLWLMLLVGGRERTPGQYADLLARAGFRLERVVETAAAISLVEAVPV

Molecule: Cc1cc(O)c2c3c(c(O)cc2c1)C(=O)c1c(O)cccc1C3=O [DHR]
- HPLC of products 1 and 6 from one-pot reaction with AlpK (AlpJ): prepared in situ by incubating AlpJ and AlpK with DHR and NADH

Molecule: NNC(=O)CC[C@H](N)C(=O)O [gluN2H3]
- Kd (AlpH): 114 nM

- stoichiometry N [1]: 2
Molecule: AlpH, O-methyltransferase-like protein from the kinamycin biosynthetic gene cluster (enzyme)

Reference: publication PMC10477347, “O-methyltransferase-like enzyme catalyzed diazo installation in polyketide biosynthesis” (Nature Communications, 2023)
